One may read the IC50 as the midpoint of a concentration-inhibition curve.

Assay [1] has as its target T1, beta-catenin/TCF4 engagement (Homo sapiens, UniProt P35222).
T1 construct: expressed in transfected cells; host or cells: HEK293
T1 sequence (P35222 1-781): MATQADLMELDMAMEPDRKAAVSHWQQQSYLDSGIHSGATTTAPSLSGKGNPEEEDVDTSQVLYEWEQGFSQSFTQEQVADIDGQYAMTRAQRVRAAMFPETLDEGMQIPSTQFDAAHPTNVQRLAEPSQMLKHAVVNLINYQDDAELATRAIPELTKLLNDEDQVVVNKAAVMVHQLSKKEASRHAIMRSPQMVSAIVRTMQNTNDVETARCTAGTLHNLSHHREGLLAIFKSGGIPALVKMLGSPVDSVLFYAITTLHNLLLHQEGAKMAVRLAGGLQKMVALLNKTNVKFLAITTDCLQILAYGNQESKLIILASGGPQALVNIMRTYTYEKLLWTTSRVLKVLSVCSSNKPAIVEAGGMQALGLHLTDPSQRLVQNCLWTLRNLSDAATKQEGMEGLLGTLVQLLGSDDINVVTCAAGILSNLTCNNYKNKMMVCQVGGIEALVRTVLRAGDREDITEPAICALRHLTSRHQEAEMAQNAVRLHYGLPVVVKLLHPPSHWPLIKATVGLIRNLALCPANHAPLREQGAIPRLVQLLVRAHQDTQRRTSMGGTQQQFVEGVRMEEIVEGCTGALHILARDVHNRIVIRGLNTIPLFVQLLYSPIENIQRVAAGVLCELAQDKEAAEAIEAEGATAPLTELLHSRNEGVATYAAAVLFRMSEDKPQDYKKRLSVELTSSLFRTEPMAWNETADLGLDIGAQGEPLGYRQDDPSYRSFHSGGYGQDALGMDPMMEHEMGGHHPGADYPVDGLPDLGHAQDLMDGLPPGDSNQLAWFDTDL
Briefly: Nano-BRET target engagement assay (B-cat-Halo & TCF4-Luc in HEK293 cells). The class given is cell-based. The settings on record: read-out: NanoBRET Abs IC50. A general note: Bioluminescence resonance energy transfer reports proximity on the nanometre scale.

Assay [2] deals with T2, full-length beta-Catenin (Uniprot ID P35222) (Homo sapiens, UniProt P35222).
T2 construct: 10 nM full-length beta-Catenin (Uniprot ID P35222)
T2 sequence (P35222 1-781): T1 sequence (P35222 1-781)
As to the kind of experiment: Fluorescence polarization IC50 (beta-catenin / 5FAM-TCF4 10-53 competition). The settings on record: fluorescence polarization; read-out: beta-Catenin FP IC50. The class given is binding.

On to `CC(=O)N1CCC[C@]12CC=CCCCC1(CCCC=CCCCOC(=O)N3CC[C@@](C(=O)N[C@@H](Cc4ccccc4Cl)C(=O)N[C@@H](Cc4csc5ccccc45)C(=O)N[C@@H](C)C(N)=O)(C3)NC(=O)[C@H](CC(C)C)NC(=O)[C@H](Cc3ccccc3)NC(=O)[C@H](C)NC(=O)[C@H](C)NC(=O)[C@H](Cc3cccc(C(=O)O)c3)NC(=O)[C@H](CC(=O)O)NC1=O)NC(=O)[C@H](CC(C)(C)C)NC(=O)[C@H](CC(=O)O)NC2=O` (stereo partly drawn) [I-1851, Ac-PL3-Asp-Npg-B5-Asp-3COOHF-Ala-Ala-Phe-Leu-PyrS2-2C1F-BztA-Ala-NH2], for which the values for the IC50 in assay [1] and in assay [2] were 3800 nM and 25 nM, respectively.
The matching figures for `CC(=O)N1CCC[C@]12CC=CCCCC1(CCCC=CCCCOC(=O)N3CC[C@@](C(=O)N[C@@H](Cc4ccccc4Cl)C(=O)N[C@@H](Cc4csc5ccccc45)C(N)=O)(C3)NC(=O)[C@H](CC(C)C)NC(=O)[C@H](Cc3ccccc3)NC(=O)[C@H](C)NC(=O)[C@H](C)NC(=O)[C@H](Cc3cccc(C(=O)O)c3)NC(=O)[C@H](CC(=O)O)NC1=O)NC(=O)[C@H](CC(C)(C)C)NC(=O)[C@H](CC(=O)O)NC2=O` (stereo partly drawn) [I-1852, Ac-PL3-Asp-Npg-B5-Asp-3COOHF-Ala-Ala-Phe-Leu-PyrS2-2C1F-BztA-NH2]: 4900 nM and 48 nM.
The matching figures for `CC(=O)N1CCC[C@]12CC=CCCCC1(CCCC=CCCCOC(=O)N3CC[C@@](C(=O)N[C@@H](Cc4ccccc4Cl)C(=O)N[C@@H](Cc4csc5ccccc45)C(=O)N[C@@H](CO)C(N)=O)(C3)NC(=O)[C@H](CC(C)C)NC(=O)[C@H](Cc3ccccc3)NC(=O)[C@H](C)NC(=O)[C@H](C)NC(=O)[C@H](Cc3cccc(C(=O)O)c3)NC(=O)[C@H](CC(=O)O)NC1=O)NC(=O)[C@H](CC(C)(C)C)NC(=O)[C@H](CC(N)=O)NC2=O` (stereo partly drawn) [I-1853, Ac-PL3-Asn-Npg-B5-Asp-3COOHF-Ala-Ala-Phe-Leu-PyrS2-2C1F-BztA-Ser-NH2]: 16300 nM and 114 nM.
Regarding `CC(=O)N1CCC[C@]12CC=CCCCC1(CCCC=CCCCOC(=O)N3CC[C@@](C(=O)N[C@@H](Cc4ccsc4)C(=O)N[C@@H](Cc4csc5ccccc45)C(=O)N[C@@H](CCC(N)=O)C(N)=O)(C3)NC(=O)[C@H](Cn3cc(CN(C)C)nn3)NC(=O)[C@H](Cc3ccccc3)NC(=O)[C@H](C)NC(=O)[C@H](C)NC(=O)[C@H](CN(CC(=O)O)CC(F)(F)F)NC(=O)[C@H](CC(=O)O)NC1=O)NC(=O)[C@H](CC(C)(C)C)NC(=O)[C@H](CC(=O)O)NC2=O` (stereo partly drawn) [I-1861, Ac-PL3-Asp-Npg-B5-Asp-TfeGA-Ala-Ala-Phe-[CH2NMe2]TriAzDap-PyrS2-3Thi-BztA-Gln-NH2], the IC50 in assay [1] is 37300 nM; in assay [2] it was 14 nM.
As for `CC(=O)N1CCC[C@]12CC=CCCCC1(CCCC=CCCCOC(=O)N3CC[C@@](C(=O)N[C@@H](Cc4ccsc4)C(=O)N[C@@H](Cc4csc5ccccc45)C(=O)N[C@@H](CCC(N)=O)C(N)=O)(C3)NC(=O)[C@H](Cn3cc(CN(C)C)nn3)NC(=O)[C@H](Cc3ccccc3)NC(=O)[C@H](C)NC(=O)[C@H](C)NC(=O)[C@H](CN(CC(=O)O)CC(F)(F)F)NC(=O)[C@H](CC(=O)O)NC1=O)NC(=O)[C@H](CC(C)(C)C)NC(=O)[C@H](CC(=O)O)NC2=O` (stereo partly drawn) [I-1862, Ac-PL3-Asp-Npg-B5-Asp-TfeGA-Ala-Ala-Phe-[CH2NMe2]TriAzDap-PyrS2-3Thi-BztA-Gln-NH2], the results for the IC50 in assay [1] and in assay [2] were 19300 nM and 10 nM, respectively.
The matching figures for `CC(=O)N1CCC[C@]12CC=CCCCC1(CCCC=CCCCOC(=O)N3CC[C@@](C(=O)N[C@@H](Cc4ccsc4)C(=O)N[C@@H](Cc4csc5ccccc45)C(=O)N[C@@H](CCC(N)=O)C(N)=O)(C3)NC(=O)[C@H](Cn3cc(CN4CCNCC4)nn3)NC(=O)[C@H](Cc3ccccc3)NC(=O)[C@H](C)NC(=O)[C@H](C)NC(=O)[C@H](CN(CC(=O)O)CC(F)(F)F)NC(=O)[C@H](CC(=O)O)NC1=O)NC(=O)[C@H](CC(C)(C)C)NC(=O)[C@H](CC(=O)O)NC2=O` (stereo partly drawn) [I-1864, Ac-PL3-Asp-Npg-B5-Asp-TfeGA-Ala-Ala-Phe-[CH2Ppz]TriAzDap-PyrS2-3Thi-BztA-Gln-NH2]: more than 20000 nM and 14 nM.
The matching figures for `CC(=O)N1CCC[C@]12CC=CCCCC1(CCCC=CCCCOC(=O)N3CC[C@@](C(=O)N[C@@H](Cc4ccsc4)C(=O)N[C@@H](Cc4csc5ccccc45)C(=O)N[C@@H](CCC(N)=O)C(N)=O)(C3)NC(=O)[C@H](Cn3cc(CN4CCOCC4)nn3)NC(=O)[C@H](Cc3ccccc3)NC(=O)[C@H](C)NC(=O)[C@H](C)NC(=O)[C@H](CN(CC(=O)O)CC(F)(F)F)NC(=O)[C@H](CC(=O)O)NC1=O)NC(=O)[C@H](CC(C)(C)C)NC(=O)[C@H](CC(=O)O)NC2=O` (stereo partly drawn) [I-1865, Ac-PL3-Asp-Npg-B5-Asp-TfeGA-Ala-Ala-Phe-[MorphCH2]TriAzDap-PyrS2-3Thi-BztA-Gln-NH2]: more than 20000 nM and 10 nM.
In the case of `CC(=O)N1CCC[C@]12CC=CCCCC1(CCCC=CCCCOC(=O)N3CC[C@@](C(=O)N[C@@H](Cc4ccsc4)C(=O)N[C@@H](Cc4csc5ccccc45)C(=O)N[C@@H](CCC(N)=O)C(N)=O)(C3)NC(=O)[C@H](Cn3cc(CN4CCOCC4)nn3)NC(=O)[C@H](Cc3ccccc3)NC(=O)[C@H](C)NC(=O)[C@H](C)NC(=O)[C@H](CN(CC(=O)O)CC(F)(F)F)NC(=O)[C@H](CC(=O)O)NC1=O)NC(=O)[C@H](CC(C)(C)C)NC(=O)[C@H](CC(=O)O)NC2=O` (stereo partly drawn) [I-1866, Ac-PL3-Asp-Npg-B5-Asp-TfeGA-Ala-Ala-Phe-[MorphCH2]TriAzDap-PyrS2-3Thi-BztA-Gln-NH2], the results for the IC50 in assay [1] and in assay [2] were more than 20000 nM and 26 nM, respectively.
The matching figures for `CC(=O)N1CCC[C@]12CC=CCCCC1(CCCC=CCCCOC(=O)N3CC[C@@](C(=O)N[C@@H](Cc4ccsc4)C(=O)N[C@@H](Cc4csc5ccccc45)C(=O)N[C@@H](CCC(N)=O)C(N)=O)(C3)NC(=O)[C@H](Cn3cc(CN4CCOCC4)nn3)NC(=O)[C@H](Cc3ccccc3)NC(=O)[C@H](C)NC(=O)[C@H](C)NC(=O)[C@H](CN(CC(=O)O)CC(F)(F)F)NC(=O)[C@H](CC(=O)O)NC1=O)NC(=O)[C@H](CC(C)(C)C)NC(=O)[C@H](CC(=O)O)NC2=O` (stereo partly drawn) [I-1867, Ac-PL3-Asp-Npg-B5-Asp-TfeGA-Ala-Ala-Phe-[MorphCH2]TriAzDap-PyrS2-3Thi-BztA-Gln-NH2]: 16400 nM and 7 nM.
As for `CC(=O)N1CCC[C@]12CC=CCCCC1(CCCC=CCCCOC(=O)N3CC[C@@](C(=O)N[C@@H](Cc4ccsc4)C(=O)N[C@@H](Cc4csc5ccccc45)C(=O)N[C@@H](CCC(N)=O)C(N)=O)(C3)NC(=O)[C@H](CC(N)=O)NC(=O)[C@H](Cc3ccccc3)NC(=O)[C@H](C)NC(=O)[C@H](C)NC(=O)[C@H](CCCNC(=N)N)NC(=O)[C@H](CC(=O)O)NC1=O)NC(=O)[C@H](CC(C)(C)C)NC(=O)[C@H](CC(=O)O)NC2=O` (stereo partly drawn) [I-1890, Ac-PL3-Asp-Npg-B5-Asp-Arg-Ala-Ala-Phe-Asn-PyrS2-3Thi-BztA-Gln-NH2], the values for the IC50 in assay [1] and in assay [2] were more than 20000 nM and 31 nM, respectively.
Regarding `CC(=O)N1CCC[C@]12CC=CCCCC1(CCCC=CCCCOC(=O)N3CC[C@@](C(=O)N[C@@H](Cc4ccsc4)C(=O)N[C@@H](Cc4csc5ccccc45)C(=O)N[C@@H](CCC(N)=O)C(N)=O)(C3)NC(=O)[C@H](CC(N)=O)NC(=O)[C@H](Cc3ccccc3)NC(=O)[C@H](C)NC(=O)[C@H](C)NC(=O)[C@H](CCCNC(=N)N)NC(=O)[C@H](CC(=O)O)NC1=O)NC(=O)[C@H](CC(C)(C)C)NC(=O)[C@H](CC(=O)O)NC2=O` (stereo partly drawn) [I-1891, Ac-PL3-Asp-Npg-B5-Asp-Arg-Ala-Ala-Phe-Asn-PyrS2-3Thi-BztA-Gln-NH2], the IC50 was more than 20000 nM in assay [1] and 40 nM in assay [2].
The matching figures for `CC(=O)N1CCC[C@]12CC=CCCCC1(CCCC=CCCCOC(=O)N3CC[C@@](C(=O)N[C@@H](CC4CCC4)C(=O)N[C@@H](Cc4csc5ccccc45)C(=O)N[C@@H](CO)C(N)=O)(C3)NC(=O)[C@H](CC(C)C)NC(=O)[C@H](Cc3ccccc3)NC(=O)[C@H](C)NC(=O)[C@H](C)NC(=O)[C@H](Cc3cccc(C(=O)O)c3)NC(=O)[C@H](CC(=O)O)NC1=O)NC(=O)[C@H](CC(C)(C)C)NC(=O)[C@H](CC(=O)O)NC2=O` (stereo partly drawn) [I-1898, Ac-PL3-Asp-Npg-B5-Asp-3COOHF-Ala-Ala-Phe-Leu-PyrS2-Cba-BztA-Ser-NH2]: 10900 nM and 22 nM.
For `CC(=O)N1CCC[C@]12CC=CCCCC1(CCCC=CCCCOC(=O)N3CC[C@@](C(=O)N[C@@H](Cc4ccccc4Cl)C(=O)N[C@@H](Cc4csc5ccccc45)C(=O)N[C@@H](CO)C(N)=O)(C3)NC(=O)[C@H](CC(C)C)NC(=O)[C@H](Cc3ccccc3)NC(=O)[C@H](C)NC(=O)C(C)(C)NC(=O)[C@H](Cc3cccc(C(=O)O)c3)NC(=O)[C@H](CC(=O)O)NC1=O)NC(=O)[C@H](CC(C)(C)C)NC(=O)[C@H](CC(=O)O)NC2=O` (stereo partly drawn) [I-1899, Ac-PL3-Asp-Npg-B5-Asp-3COOHF-Aib-Ala-Phe-Leu-PyrS2-2C1F-BztA-Ser-NH2], the results for the IC50 in assay [1] and in assay [2] were 5100 nM and 28 nM, respectively.

These data come from patent US20240116985A1, “STAPLED PEPTIDES AND METHODS THEREOF” (priority 2020, published 2024).
